Each block holds one compound with its values, some of them ahead of it.
Tests used:
Format in all cases: biochemical
[1] = target: T1, glutamate dehydrogenase (GDH) from Geotrichum candidum S12 (Geotrichum candidum, UniProt A0A023RBK5); experiment: activity towards hexanol, GC; settings: read-out: Relative activity (%)^a
T1 construct: identified by PMF similarity to Yaliof17820p (Yarrowia homologue)
From the text: activity towards hexanol, GC on glutamate dehydrogenase (GDH) from Geotrichum candidum S12

[2] = target: T1, glutamate dehydrogenase (GDH) from Geotrichum candidum S12; experiment: residual activity towards hexanol, GC; settings: read-out: Relative activity (%)^a
From the text: residual activity towards hexanol, GC on glutamate dehydrogenase (GDH) from Geotrichum candidum S12

[3] = target: T1, glutamate dehydrogenase (GDH) from Geotrichum candidum S12; experiment: activity towards hexanol, GC; settings: 0.3 mmol/L NAD+, 9.8 mmol/L hexanol, pH 4.0, 30 °C

T1 sequence (A0A023RBK5 1-452): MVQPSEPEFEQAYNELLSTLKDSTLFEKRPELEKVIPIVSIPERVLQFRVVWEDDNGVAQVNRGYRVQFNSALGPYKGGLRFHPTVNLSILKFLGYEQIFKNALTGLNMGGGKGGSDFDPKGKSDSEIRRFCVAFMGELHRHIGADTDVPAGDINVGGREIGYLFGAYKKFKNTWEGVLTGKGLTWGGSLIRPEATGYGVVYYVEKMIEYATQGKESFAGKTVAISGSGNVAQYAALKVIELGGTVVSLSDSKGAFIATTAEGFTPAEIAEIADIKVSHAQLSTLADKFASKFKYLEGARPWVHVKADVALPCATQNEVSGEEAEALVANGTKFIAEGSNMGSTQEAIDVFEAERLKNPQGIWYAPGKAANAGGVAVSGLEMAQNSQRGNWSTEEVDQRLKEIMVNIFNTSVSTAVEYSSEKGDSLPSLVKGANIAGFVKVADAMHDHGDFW

activity at 1000 µM [1]: 138 ± 3.72%
Compound: Nc1ncnc2c1ncn2[C@@H]1O[C@H](COP(=O)(O)OP(=O)(O)O)[C@@H](O)[C@H]1O [ADP]

activity at 1000 µM [2]: 14.3 ± 0.84%
Compound: Nc1ncnc2c1ncn2[C@@H]1O[C@H](COP(=O)(O)OP(=O)(O)OP(=O)(O)O)[C@@H](O)[C@H]1O [ATP]

Compound: NC(=O)c1ccc[n+]([C@@H]2O[C@H](COP(=O)(O)OP(=O)(O)OC[C@H]3O[C@@H](n4cnc5c(N)ncnc54)[C@H](O)[C@@H]3O)[C@@H](O)[C@H]2O)c1 [NAD^+]
activity towards hexanol, GC [3]: the enzyme could use NADP^+ and NAD^+ as a hydrogen acceptor of hexanol

From publication PMC5209314, “Purification and characterization of a novel glutamate dehydrogenase from Geotrichum candidum with higher alcohol and amino acid activity” (AMB Express, 2017)
